# Patent US20240383915A1, “OXAZEPINE COMPOUNDS AND USES THEREOF IN THE TREATMENT OF CANCER” (Genentech, Inc., priority 2021, published 2024)
# Where two headings read alike, the source gives them in different places.
# How the values were obtained:
# [1] = target: KRas (Homo sapiens (Human), UniProt P01116); experiment: KRas GDP HTRF (BODIPY-GDP exchange TR-FRET); type: biochemical
# Summary of the method: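 Inhibition of SOS1-mediated exchange of BODIPY-GDP on KRAS G12D, started with 3 nM recombinant human SOS1 and 300 nM BODIPY-GDP and read after 60 min. TR-FRET excitation 337 nm, ratio 520/490 nm ×10,000. IC50 from 4-parameter Hill fit of normalized data.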
# [2] = target: KRas(G12V) (Homo sapiens (Human), UniProt P01116, G12V); experiment: KRas(G12V) GDP HTRF (BODIPY-GDP exchange TR-FRET); type: biochemical
# Chain of KRas(G12V) (P01116-2 other isoform, or with tags, fused parts or gaps G12V): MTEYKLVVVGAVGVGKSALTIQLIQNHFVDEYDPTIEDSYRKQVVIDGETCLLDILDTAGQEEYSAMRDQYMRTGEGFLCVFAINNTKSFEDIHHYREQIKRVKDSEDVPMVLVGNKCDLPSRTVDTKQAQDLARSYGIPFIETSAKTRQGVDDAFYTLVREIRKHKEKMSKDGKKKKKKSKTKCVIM
# [3] = system: SW480 cells; experiment: SW480 proliferation assay; type: cell-based; settings: read-out: SW480 Prolif IC50 (G12V)
# [4] = system: PC-9 cells; experiment: PC9 proliferation assay; type: cell-based, human; settings: read-out: PC9 Prolif IC50 (G12V)
# Chain of KRas (P01116-2 other isoform, or with tags, fused parts or gaps): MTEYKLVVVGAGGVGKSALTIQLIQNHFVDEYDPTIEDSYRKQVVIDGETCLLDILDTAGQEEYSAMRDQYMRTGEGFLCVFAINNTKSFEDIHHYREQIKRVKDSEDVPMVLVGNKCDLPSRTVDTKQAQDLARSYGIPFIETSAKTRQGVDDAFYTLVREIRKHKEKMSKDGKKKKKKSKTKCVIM
Compound,IC50 [1],IC50 [2],"IC50 ([3]; Homo sapiens, SW480, SW480)","IC50 ([4]; Homo sapiens, PC-9, PC9)",IC50 ([3]; SW480),IC50 ([4]; PC9)
"Cc1cc(N)nc(-c2c(Cl)c3c4c(nc(OC[C@@]56CCCN5C[C@H](F)C6)nc4c2F)N([C@@H](c2cccnc2N)C2CC2)CCO3)c1C(F)(F)F (atropisomer, axis not shown; (aS)) [Example 86, 6-((R)-4-((R)-(2-aminopyridin-3-yl)(cyclopropyl)methyl)-8-chloro-10-fluoro-2-(((2R,7aS)-2-fluorotetrahydro-1H-pyrrolizin-7a(5H)-yl)methoxy)-5,6-dihydro-4H-[1,4]oxazepino[5,6,7-de]quinazolin-9-yl)-4-methyl-5-(trifluoromethyl)pyridin-2-amine]",0.44 nM,0.15 nM,4.9 nM,3700 nM,,
"Cc1cc(N)nc(-c2c(Cl)c3c4c(nc(OC[C@@H]5CC[C@H]6COC(F)(F)CN56)nc4c2F)N([C@H](C)c2cccnc2N)CCO3)c1C(F)(F)F (atropisomer, axis not shown; (aS)) [Example 91a, 6-((R)-4-((R)-1-(2-aminopyridin-3-yl)ethyl)-8-chloro-2-(((6S,8aS)-3,3-difluorohexahydro-1H-pyrrolo[2,1-c][1,4]oxazin-6-yl)methoxy)-10-fluoro-5,6-dihydro-4H-[1,4]oxazepino[5,6,7-de]quinazolin-9-yl)-4-methyl-5-(trifluoromethyl)pyridin-2-amine]",0.9 nM,0.29 nM,3.4 nM,20000 nM,,
"Cc1cc(N)nc(-c2c(Cl)c3c4c(nc(OC[C@@]56CCCN5C[C@H](F)C6)nc4c2F)N([C@H](C)c2cccnc2N)CCO3)c1C(F)(F)F (atropisomer, axis not shown; (aS)) [Example 107, (S)-6-(4-((R)-1-(2-aminopyridin-3-yl)ethyl)-8-chloro-10-fluoro-2-(((2R,7aS)-2-fluorotetrahydro-1H-pyrrolizin-7a(5H)-yl)methoxy)-5,6-dihydro-4H-[1,4]oxazepino[5,6,7-de]quinazolin-9-yl)-4-methyl-5-(trifluoromethyl)pyridin-2-amine]",240 nM,90 nM,,,560 nM,4000 nM
"C[C@H](c1cccnc1N)N1CCOc2c(Cl)c(-c3nc(N)cc4ccccc34)c(F)c3nc(OC[C@@]45CCCN4C[C@H](F)C5)nc1c23 (atropisomer, axis not shown; (aS)) [Example 113a, 1-((R)-4-((R)-1-(2-aminopyridin-3-yl)ethyl)-8-chloro-10-fluoro-2-(((2R,7aS)-2-fluorotetrahydro-1H-pyrrolizin-7a(5H)-yl)methoxy)-5,6-dihydro-4H-[1,4]oxazepino[5,6,7-de]quinazolin-9-yl)isoquinolin-3-amine]",0.2 nM,0.09 nM,2.8 nM,7500 nM,,
"Cc1cc(N)nc(-c2c(Cl)c3c4c(nc(OC[C@@H]5CC[C@H]6COCCCN65)nc4c2F)N([C@H](C)c2cccnc2N)CCO3)c1C(F)(F)F (atropisomer, axis not shown; (aS)) [Example 120a, 6-((R)-4-((R)-1-(2-aminopyridin-3-yl)ethyl)-8-chloro-10-fluoro-2-(((7S,9aS)-hexahydro-1H,3H-pyrrolo[2,1-c][1,4]oxazepin-7-yl)methoxy)-5,6-dihydro-4H-[1,4]oxazepino[5,6,7-de]quinazolin-9-yl)-4-methyl-5-(trifluoromethyl)pyridin-2-amine]",0.2 nM,0.07 nM,28 nM,2500 nM,,

# The remaining lines, values ahead:
IC50 [1],IC50 [2],"IC50 ([3]; Homo sapiens, SW480, SW480)","IC50 ([4]; Homo sapiens, PC-9, PC9)",IC50 ([3]; SW480),IC50 ([4]; PC9),Compound
0.106 nM,0.087 nM,2.5 nM,6300 nM,,,"Cc1cc(N)nc(-c2c(Cl)c3c4c(nc(OC[C@@H]5CC[C@H]6COCCN65)nc4c2F)N([C@H](C)c2cccnc2N)CCO3)c1C(F)(F)F (atropisomer, axis not shown; (aS)) [Example 87a, 6-((R)-4-((R)-1-(2-aminopyridin-3-yl)ethyl)-8-chloro-10-fluoro-2-(((6S,8aS)-hexahydro-1H-pyrrolo[2,1-c][1,4]oxazin-6-yl)methoxy)-5,6-dihydro-4H-[1,4]oxazepino[5,6,7-de]quinazolin-9-yl)-4-methyl-5-(trifluoromethyl)pyridin-2-amine]"
0.12 nM,0.05 nM,1.5 nM,3000 nM,,,"Cc1cc(N)nc(-c2c(Br)c3c4c(nc(OC[C@@]56CCCN5C[C@H](F)C6)nc4c2F)N([C@H](C)c2cccnc2N)CCO3)c1C(F)(F)F (atropisomer, axis not shown; (aS)) [Example 88, (R)-6-(4-((R)-1-(2-aminopyridin-3-yl)ethyl)-8-bromo-10-fluoro-2-(((2R,7aS)-2-fluorotetrahydro-1H-pyrrolizin-7a(5H)-yl)methoxy)-5,6-dihydro-4H-[1,4]oxazepino[5,6,7-de]quinazolin-9-yl)-4-methyl-5-(trifluoromethyl)pyridin-2-amine]"
0.17 nM,0.075 nM,7.2 nM,2400 nM,,,"CCO[C@H]1CN2CCC[C@@]2(COc2nc3c4c(c(Cl)c(-c5nc(N)cc(C)c5C(F)(F)F)c(F)c4n2)OCCN3[C@H](C)c2cccnc2N)C1 (atropisomer, axis not shown; (aS)) [Example 89, 6-((R)-4-((R)-1-(2-aminopyridin-3-yl)ethyl)-8-chloro-2-(((2R,7aS)-2-ethoxytetrahydro-1H-pyrrolizin-7a(5H)-yl)methoxy)-10-fluoro-5,6-dihydro-4H-[1,4]oxazepino[5,6,7-de]quinazolin-9-yl)-4-methyl-5-(trifluoromethyl)pyridin-2-amine]"
0.0616 nM,0.06 nM,5.7 nM,830 nM,,,"Cc1cc(N)nc(-c2c(Cl)c3c4c(nc(OC[C@@]56CCCN5C[C@H](F)C6)nc4c2F)N([C@H](C)c2nccnc2N)CCO3)c1C(F)(F)F (atropisomer, axis not shown; (aS)) [Example 101, 3-((R)-1-((R)-9-(6-amino-4-methyl-3-(trifluoromethyl)pyridin-2-yl)-8-chloro-10-fluoro-2-(((2R,7aS)-2-fluorotetrahydro-1H-pyrrolizin-7a(5H)-yl)methoxy)-5,6-dihydro-4H-[1,4]oxazepino[5,6,7-de]quinazolin-4-yl)ethyl)pyrazin-2-amine]"
0.115 nM,0.094 nM,19 nM,2200 nM,,,"Cc1cc(N)nc(-c2c(Cl)c3c4c(nc(OC[C@@H]5CC[C@H]6COCCN65)nc4c2F)N([C@H](C)c2cncnc2N)CCO3)c1C(F)(F)F (atropisomer, axis not shown; (aS)) [Example 102a, 5-((R)-1-((R)-9-(6-amino-4-methyl-3-(trifluoromethyl)pyridin-2-yl)-8-chloro-10-fluoro-2-(((6S,8aS)-hexahydro-1H-pyrrolo[2,1-c][1,4]oxazin-6-yl)methoxy)-5,6-dihydro-4H-[1,4]oxazepino[5,6,7-de]quinazolin-4-yl)ethyl)pyrimidin-4-amine]"
0.2 nM,0.06 nM,2 nM,1400 nM,,,"C[C@H](c1cccnc1N)N1CCOc2c(Cl)c(-c3nc(N)ccc3C(F)(F)F)c(F)c3nc(OC[C@@]45CCCN4C[C@H](F)C5)nc1c23 (atropisomer, axis not shown; (aS)) [Example 108a, 6-((R)-4-((R)-1-(2-aminopyridin-3-yl)ethyl)-8-chloro-10-fluoro-2-(((2R,7aS)-2-fluorotetrahydro-1H-pyrrolizin-7a(5H)-yl)methoxy)-5,6-dihydro-4H-[1,4]oxazepino[5,6,7-de]quinazolin-9-yl)-5-(trifluoromethyl)pyridin-2-amine]"
